These results are taken from US20230310428A1, “EGFR INHIBITOR AND PREPARATION METHOD AND USE THEREOF” (HONGYUN BIOTECH CO., LTD., priority 2020, published 2023).

Common to all, as to test: Growth inhibitory activity of compounds on BaF3 cell lines stably transfected with kinase (MTS, 48 h)
Holding throughout (type): cell-based

In experiment [1] the target is T1, various mutants of kinase EGFR (BaF3 cell lines stably transfected with kinase) (Homo sapiens, UniProt P00533, L858R).
T1 construct: expressed in transfected cells; host or cells: BaF3
T1 sequence (P00533 25-1210 L858R): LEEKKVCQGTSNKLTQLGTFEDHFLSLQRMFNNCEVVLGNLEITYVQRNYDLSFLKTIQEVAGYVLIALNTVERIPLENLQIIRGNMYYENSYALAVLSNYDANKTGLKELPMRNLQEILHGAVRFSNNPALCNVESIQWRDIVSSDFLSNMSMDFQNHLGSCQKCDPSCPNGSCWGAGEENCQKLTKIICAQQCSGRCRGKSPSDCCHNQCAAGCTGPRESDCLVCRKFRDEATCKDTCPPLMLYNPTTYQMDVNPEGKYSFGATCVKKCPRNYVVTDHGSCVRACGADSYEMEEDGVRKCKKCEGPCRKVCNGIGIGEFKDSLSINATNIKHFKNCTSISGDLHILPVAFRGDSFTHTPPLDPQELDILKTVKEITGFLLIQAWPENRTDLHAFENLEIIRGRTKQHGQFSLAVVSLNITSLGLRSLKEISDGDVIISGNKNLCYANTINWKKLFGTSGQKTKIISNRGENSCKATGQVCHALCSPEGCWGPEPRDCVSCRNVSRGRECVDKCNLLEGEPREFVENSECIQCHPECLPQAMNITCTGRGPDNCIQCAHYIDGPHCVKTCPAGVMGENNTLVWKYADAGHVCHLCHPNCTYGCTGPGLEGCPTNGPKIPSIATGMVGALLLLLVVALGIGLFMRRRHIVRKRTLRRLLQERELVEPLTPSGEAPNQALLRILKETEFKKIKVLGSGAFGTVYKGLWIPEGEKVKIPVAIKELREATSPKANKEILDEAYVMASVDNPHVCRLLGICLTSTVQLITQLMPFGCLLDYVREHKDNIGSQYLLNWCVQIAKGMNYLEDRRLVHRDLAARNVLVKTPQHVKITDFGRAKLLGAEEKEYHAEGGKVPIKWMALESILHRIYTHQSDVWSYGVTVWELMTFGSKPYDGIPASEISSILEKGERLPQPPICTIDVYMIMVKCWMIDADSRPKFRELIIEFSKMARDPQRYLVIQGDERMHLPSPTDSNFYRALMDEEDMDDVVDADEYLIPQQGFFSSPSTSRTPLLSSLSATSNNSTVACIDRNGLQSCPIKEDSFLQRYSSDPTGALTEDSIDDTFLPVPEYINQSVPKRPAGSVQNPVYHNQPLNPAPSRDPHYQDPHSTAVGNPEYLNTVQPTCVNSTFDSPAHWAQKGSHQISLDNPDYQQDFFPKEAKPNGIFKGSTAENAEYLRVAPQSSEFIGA
As to conditions: BaF3 cells stably transfected with EGFR L858R, read-out: IC50, growth inhibition, L858R. In short, it runs like this: (§1)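 BaF3 cells stably transfected with EGFR mutants were exposed for 48 h at 37°C to 8 compound concentrations (top 10 µM, 1/3 dilutions, 0.1% DMSO). Growth was read by MTS at 490 nm after 1-4 h, in duplicate; IC50 was derived from inhibition rates versus DMSO control.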

Experiment [2] has as its target T2, various mutants of kinase EGFR (BaF3 cell lines stably transfected with kinase) (Homo sapiens, UniProt P00533, T790M, form not given).
T2 construct: other: BaF3 cells stably transfected with EGFR Δ19Del/T790M; MTS, 48 h; other: BaF3 cell line stably transfected with EGFR Δ19Del/T790M; MTS, 48
The following applies: BaF3 cells stably transfected with EGFR Δ19Del/T790M, read-out: IC50, growth inhibition, Δ19Del/T790M. In short, it runs like this:
as §1

Experiment [3] concerns the target T3, various mutants of kinase EGFR (BaF3 cell lines stably transfected with kinase) (Homo sapiens, UniProt P00533).
T3 construct: other: BaF3 cells stably transfected with EGFR Δ19Del; MTS, 48 h; other: BaF3 cell line stably transfected with EGFR Δ19Del
As to conditions: BaF3 cells stably transfected with EGFR Δ19Del, read-out: IC50, growth inhibition, Δ19Del. An outline of the steps: as §1

Experiment [4] addresses T4, various mutants of kinase EGFR (BaF3 cell lines stably transfected with kinase) (Homo sapiens, UniProt P00533, L858R/T790M).
T4 construct: expressed in transfected cells; host or cells: BaF3
As to conditions: BaF3 cells stably transfected with EGFR L858R/T790M, read-out: IC50, growth inhibition, L858R/T790M. In short, it runs like this: as §1

The target of experiment [5] is T5, various mutants of kinase EGFR (BaF3 cell lines stably transfected with kinase) (Homo sapiens, UniProt P00533, C797S/L858R/T790M).
T5 construct: expressed in transfected cells; host or cells: BaF3
T5 sequence (P00533 25-1210 T790M/C797S/L858R): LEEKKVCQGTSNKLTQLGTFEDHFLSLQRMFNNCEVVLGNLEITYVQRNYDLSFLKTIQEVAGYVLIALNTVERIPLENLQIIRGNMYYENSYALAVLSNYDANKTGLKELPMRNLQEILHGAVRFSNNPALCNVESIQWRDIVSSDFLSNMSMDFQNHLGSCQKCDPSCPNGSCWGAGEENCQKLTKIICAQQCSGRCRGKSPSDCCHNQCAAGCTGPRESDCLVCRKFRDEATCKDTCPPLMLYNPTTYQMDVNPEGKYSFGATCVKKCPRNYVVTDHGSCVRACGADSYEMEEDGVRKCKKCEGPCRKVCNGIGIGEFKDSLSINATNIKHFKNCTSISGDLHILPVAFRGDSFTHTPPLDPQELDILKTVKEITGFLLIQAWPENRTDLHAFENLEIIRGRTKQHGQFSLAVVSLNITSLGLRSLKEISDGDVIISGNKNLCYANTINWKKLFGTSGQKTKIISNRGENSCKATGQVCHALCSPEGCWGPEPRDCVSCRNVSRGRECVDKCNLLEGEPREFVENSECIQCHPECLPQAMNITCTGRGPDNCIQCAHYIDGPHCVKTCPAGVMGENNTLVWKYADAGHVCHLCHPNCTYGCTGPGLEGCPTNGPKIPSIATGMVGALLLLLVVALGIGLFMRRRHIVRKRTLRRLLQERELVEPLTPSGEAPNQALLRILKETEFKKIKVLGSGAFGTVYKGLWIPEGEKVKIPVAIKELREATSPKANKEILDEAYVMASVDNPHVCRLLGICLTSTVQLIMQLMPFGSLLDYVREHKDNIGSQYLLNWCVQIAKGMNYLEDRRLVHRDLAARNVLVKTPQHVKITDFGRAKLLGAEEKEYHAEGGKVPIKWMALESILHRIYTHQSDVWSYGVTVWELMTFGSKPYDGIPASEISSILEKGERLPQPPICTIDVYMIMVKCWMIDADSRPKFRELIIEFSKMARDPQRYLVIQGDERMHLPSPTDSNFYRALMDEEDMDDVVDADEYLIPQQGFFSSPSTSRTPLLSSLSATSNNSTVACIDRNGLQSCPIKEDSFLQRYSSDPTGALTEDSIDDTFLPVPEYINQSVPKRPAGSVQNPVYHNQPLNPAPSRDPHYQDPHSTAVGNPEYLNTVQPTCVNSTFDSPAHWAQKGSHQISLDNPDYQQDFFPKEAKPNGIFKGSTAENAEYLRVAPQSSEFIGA
As to conditions: BaF3 cells stably transfected with EGFR L858R/T790M/C797S, read-out: IC50, growth inhibition, L858R/T790M/C797S. An outline of the steps:
as §1

Experiment [6] concerns the target T6, various mutants of kinase EGFR (BaF3 cell lines stably transfected with kinase) (Homo sapiens, UniProt P00533, T790M/C797S, form not given).
T6 construct: other: BaF3 cells stably transfected with EGFR Δ19Del/T790M/C797S; MTS, 48; other: BaF3 cell line stably transfected with EGFR Δ19Del/T790M/C7
As to conditions: BaF3 cells stably transfected with EGFR Δ19Del/T790M/C797S, read-out: IC50, growth inhibition, Δ19Del/T790M/C797S. An outline of the steps: as §1

T4 sequence (P00533 25-1210 T790M/L858R): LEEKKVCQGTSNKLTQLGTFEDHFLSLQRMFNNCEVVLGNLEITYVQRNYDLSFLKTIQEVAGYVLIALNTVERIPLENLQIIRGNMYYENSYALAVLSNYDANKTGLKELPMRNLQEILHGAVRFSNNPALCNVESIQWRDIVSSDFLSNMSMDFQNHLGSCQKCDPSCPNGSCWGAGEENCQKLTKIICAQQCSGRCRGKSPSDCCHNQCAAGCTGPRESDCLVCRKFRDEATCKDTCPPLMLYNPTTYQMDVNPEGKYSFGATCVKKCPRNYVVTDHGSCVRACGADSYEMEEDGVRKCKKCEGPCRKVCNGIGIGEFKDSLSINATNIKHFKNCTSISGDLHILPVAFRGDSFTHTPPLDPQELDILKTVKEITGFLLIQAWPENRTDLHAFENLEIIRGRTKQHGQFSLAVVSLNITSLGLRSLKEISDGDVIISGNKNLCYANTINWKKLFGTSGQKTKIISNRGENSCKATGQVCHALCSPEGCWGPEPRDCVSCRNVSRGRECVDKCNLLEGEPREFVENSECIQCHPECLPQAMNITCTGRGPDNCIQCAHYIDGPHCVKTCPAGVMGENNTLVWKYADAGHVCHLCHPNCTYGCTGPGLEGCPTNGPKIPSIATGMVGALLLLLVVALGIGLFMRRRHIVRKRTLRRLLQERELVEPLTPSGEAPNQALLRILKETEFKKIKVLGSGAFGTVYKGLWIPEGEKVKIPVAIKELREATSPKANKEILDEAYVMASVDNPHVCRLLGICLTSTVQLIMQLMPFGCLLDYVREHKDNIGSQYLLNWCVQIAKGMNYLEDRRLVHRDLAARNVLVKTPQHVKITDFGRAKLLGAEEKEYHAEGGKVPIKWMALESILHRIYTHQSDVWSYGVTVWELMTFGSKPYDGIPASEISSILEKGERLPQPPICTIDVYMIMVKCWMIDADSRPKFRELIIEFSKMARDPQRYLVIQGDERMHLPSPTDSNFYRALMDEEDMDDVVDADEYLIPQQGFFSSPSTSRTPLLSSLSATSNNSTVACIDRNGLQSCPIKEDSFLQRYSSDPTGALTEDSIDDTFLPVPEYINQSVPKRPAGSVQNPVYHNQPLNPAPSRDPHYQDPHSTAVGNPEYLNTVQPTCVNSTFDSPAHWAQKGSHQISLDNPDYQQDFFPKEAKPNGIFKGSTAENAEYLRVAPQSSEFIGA
T3 sequence (P00533 with tags, fused parts or gaps DEL746-750): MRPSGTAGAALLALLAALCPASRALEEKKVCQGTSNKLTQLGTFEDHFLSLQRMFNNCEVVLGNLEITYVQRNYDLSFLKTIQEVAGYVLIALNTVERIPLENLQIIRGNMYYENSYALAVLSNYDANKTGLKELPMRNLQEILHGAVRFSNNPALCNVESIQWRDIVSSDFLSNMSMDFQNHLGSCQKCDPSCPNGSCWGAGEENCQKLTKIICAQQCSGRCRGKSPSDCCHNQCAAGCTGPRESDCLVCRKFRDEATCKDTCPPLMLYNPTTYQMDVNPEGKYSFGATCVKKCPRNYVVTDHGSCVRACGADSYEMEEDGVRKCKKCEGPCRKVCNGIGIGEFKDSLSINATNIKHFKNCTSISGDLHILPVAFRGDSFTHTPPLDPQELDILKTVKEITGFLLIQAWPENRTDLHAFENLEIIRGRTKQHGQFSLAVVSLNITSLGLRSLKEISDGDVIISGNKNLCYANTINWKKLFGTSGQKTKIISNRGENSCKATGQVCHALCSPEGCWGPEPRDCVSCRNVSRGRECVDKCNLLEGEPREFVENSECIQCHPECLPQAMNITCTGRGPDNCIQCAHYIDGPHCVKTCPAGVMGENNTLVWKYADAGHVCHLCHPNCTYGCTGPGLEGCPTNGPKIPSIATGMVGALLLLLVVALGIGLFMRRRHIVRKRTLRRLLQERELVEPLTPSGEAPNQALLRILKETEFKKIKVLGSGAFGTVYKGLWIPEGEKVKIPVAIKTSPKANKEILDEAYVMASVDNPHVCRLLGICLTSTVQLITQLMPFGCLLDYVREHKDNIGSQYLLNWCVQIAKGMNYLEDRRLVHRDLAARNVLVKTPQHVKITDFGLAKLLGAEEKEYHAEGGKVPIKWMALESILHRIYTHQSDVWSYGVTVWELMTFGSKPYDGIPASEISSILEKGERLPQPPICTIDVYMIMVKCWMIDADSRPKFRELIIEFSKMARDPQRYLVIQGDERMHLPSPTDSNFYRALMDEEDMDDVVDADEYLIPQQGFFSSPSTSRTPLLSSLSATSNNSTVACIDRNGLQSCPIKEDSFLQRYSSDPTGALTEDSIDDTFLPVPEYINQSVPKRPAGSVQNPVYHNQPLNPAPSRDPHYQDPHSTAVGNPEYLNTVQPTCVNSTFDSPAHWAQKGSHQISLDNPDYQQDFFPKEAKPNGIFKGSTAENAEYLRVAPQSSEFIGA

As to `CCN(c1c(Nc2nc(Nc3cc(CC4CC4)c(N4CCC(N5CCN(C)CC5)CC4)cc3OC)ncc2Cl)ccc2nccnc12)S(C)(=O)=O` [Compound I-229], the IC50 in experiment [1] was 50 to 500 nM; in experiment [2], 50 to 500 nM; in experiment [3] it was 50 to 500 nM; in experiment [4], not above 50 nM; in experiment [5], not above 50 nM; in experiment [6], not above 50 nM.

Take `CCN(c1c(Nc2nc(Nc3cc(C)c(N4CCC(N(C)C)CC4)cc3OC)ncc2Cl)ccc2nccnc12)S(C)(=O)=O` [Compound I-230]: the IC50 in experiment [1], in experiment [2], in experiment [3], in experiment [4], in experiment [5] and in experiment [6] was not above 50 nM in each case.

For the compound `CCN(c1c(Nc2nc(Nc3cc(C)c(N4CCN(C)CC4)cc3OC)ncc2Cl)ccc2nccnc12)S(C)(=O)=O` [Compound I-231], the IC50 is not above 50 nM in experiment [1]; 50 to 500 nM in experiment [2]; not above 50 nM in experiment [3]; not above 50 nM in experiment [4]; not above 50 nM in experiment [5]; not above 50 nM in experiment [6].

On to `CCc1cc(Nc2ncc(Cl)c(Nc3ccc4nccnc4c3N(CC)S(C)(=O)=O)n2)c(OC)cc1N1CCN(C)CC1` [Compound I-232], for which the IC50 in experiment [1], in experiment [2], in experiment [3], in experiment [4], in experiment [5] and in experiment [6] was not above 50 nM in each case.

As for `CCN(c1c(Nc2nc(Nc3cc(C)c(N4CCC(N(C)C)C4)cc3OC)ncc2Cl)ccc2nccnc12)S(C)(=O)=O` (stereo not drawn) [Compound I-233], the IC50 in experiment [1], in experiment [2], in experiment [3], in experiment [4], in experiment [5] and in experiment [6] was not above 50 nM throughout.

On to `CCc1cc(Nc2ncc(Cl)c(Nc3ccc4nccnc4c3N(C)S(=O)(=O)CC)n2)c(OC)nc1N1CCC(N2CCN(C)CC2)CC1` [Compound I-234], for which the IC50 in experiment [1] was 50 to 500 nM; in experiment [2] it was not above 50 nM; in experiment [3], 50 to 500 nM; in experiment [4], not above 50 nM; in experiment [5], not above 50 nM; in experiment [6] it was not above 50 nM.

As for `CCS(=O)(=O)N(C)c1c(Nc2nc(Nc3cc(CC4CC4)c(N4CCC(N5CCN(C)CC5)CC4)cc3OC)ncc2Cl)ccc2nccnc12` [Compound I-235], the IC50 in experiment [1] is 50 to 500 nM; in experiment [2] it was not above 50 nM; in experiment [3], 50 to 500 nM; in experiment [4] it was not above 50 nM; in experiment [5], 50 to 500 nM; in experiment [6], not above 50 nM.

For `CCc1cc(Nc2ncc(Cl)c(Nc3ccc4nccnc4c3N(C)S(=O)(=O)CC)n2)c(OC)cc1N1CCN(C)CC1` [Compound I-236], the IC50 in experiment [1], in experiment [2], in experiment [3], in experiment [4], in experiment [5] and in experiment [6] was not above 50 nM throughout.

As for `COc1cc(N2CCC(N3CCN(C)CC3)CC2)ccc1Nc1ncc(Cl)c(Nc2ccc3nccnc3c2N(C)S(=O)(=O)C2CC2)n1` [Compound I-237], the IC50 in experiment [1], in experiment [2], in experiment [3], in experiment [4], in experiment [5] and in experiment [6] was 50 to 500 nM each time.

Take `COc1cc(N2CCC(N3CCN(C)CC3)CC2)c(CC2CC2)cc1Nc1ncc(Cl)c(Nc2ccc3nccnc3c2N(C)S(=O)(=O)C2CC2)n1` [Compound I-238]: the IC50 in experiment [1] is 50 to 500 nM; in experiment [2] it was 50 to 500 nM; in experiment [3] it was 50 to 500 nM; in experiment [4], 50 to 500 nM; in experiment [5], 50 to 500 nM; in experiment [6], not above 50 nM.

On to `COc1nc(N2CCC(N3CCN(C)CC3)CC2)ccc1Nc1ncc(Cl)c(Nc2ccc3nccnc3c2N(C2CC2)S(C)(=O)=O)n1` [Compound I-239], for which the IC50 in experiment [1] is 50 to 500 nM; in experiment [2], 50 to 500 nM; in experiment [3], 50 to 500 nM; in experiment [4], 50 to 500 nM; in experiment [5] it was 50 to 500 nM; in experiment [6], not above 50 nM.

As for `COc1nc(N2CCC(N3CCN(C)CC3)CC2)c(C)cc1Nc1ncc(Cl)c(Nc2ccc3nccnc3c2N(C2CC2)S(C)(=O)=O)n1` [Compound I-240], the IC50 in experiment [1], in experiment [2], in experiment [3], in experiment [4], in experiment [5] and in experiment [6] was 500 to 2500 nM throughout.

`CCc1cc(Nc2ncc(Cl)c(Nc3ccc4nccnc4c3N(C3CC3)S(C)(=O)=O)n2)c(OC)nc1N1CCC(N2CCN(C)CC2)CC1` [Compound I-241]: the IC50 in experiment [1] is not above 50 nM; in experiment [2], not above 50 nM; in experiment [3], not above 50 nM; in experiment [4] it was not above 50 nM; in experiment [5] it was 50 to 500 nM; in experiment [6], not above 50 nM.

On to `COc1cc(N2CCC(N3CCN(C)CC3)CC2)c(CC2CC2)cc1Nc1ncc(Cl)c(Nc2ccc3nccnc3c2N(C2CC2)S(C)(=O)=O)n1` [Compound I-242], for which the IC50 in experiment [1] is 50 to 500 nM; in experiment [2], 50 to 500 nM; in experiment [3], 50 to 500 nM; in experiment [4] it was 50 to 500 nM; in experiment [5] it was not above 50 nM; in experiment [6], not above 50 nM.

Regarding `COc1cc(N2CCC(N(C)C)CC2)c(C)cc1Nc1ncc(Cl)c(Nc2ccc3nccnc3c2N(C2CC2)S(C)(=O)=O)n1` [Compound I-243], the IC50 in experiment [1] was not above 50 nM; in experiment [2], not above 50 nM; in experiment [3], not above 50 nM; in experiment [4], not above 50 nM; in experiment [5], 50 to 500 nM; in experiment [6], 50 to 500 nM.

Turning to `COc1cc(N2CCN(C)CC2)c(C)cc1Nc1ncc(Cl)c(Nc2ccc3nccnc3c2N(C2CC2)S(C)(=O)=O)n1` [Compound I-244], the IC50 was not above 50 nM in experiment [1]; 50 to 500 nM in experiment [2]; not above 50 nM in experiment [3]; not above 50 nM in experiment [4]; not above 50 nM in experiment [5]; not above 50 nM in experiment [6].

As for `CCc1cc(Nc2ncc(Cl)c(Nc3ccc4nccnc4c3N(C3CC3)S(C)(=O)=O)n2)c(OC)cc1N1CCN(C)CC1` [Compound I-245], the IC50 in experiment [1], in experiment [2], in experiment [3], in experiment [4], in experiment [5] and in experiment [6] was not above 50 nM in each case.

As to `COc1cc(N2CCC(N(C)C)C2)c(C)cc1Nc1ncc(Cl)c(Nc2ccc3nccnc3c2N(C2CC2)S(C)(=O)=O)n1` (stereo not drawn) [Compound I-246], the IC50 in experiment [1], in experiment [2], in experiment [3], in experiment [4], in experiment [5] and in experiment [6] was not above 50 nM in each case.

With `COc1cc(N2CCC(N3CCN(C)CC3)CC2)ccc1Nc1ncc(F)c(Nc2ccc3nccnc3c2N(C)S(=O)(=O)C2CC2)n1` [Compound I-247], the IC50 is 50 to 500 nM in experiment [1]; 500 to 2500 nM in experiment [2]; 50 to 500 nM in experiment [3]; 500 to 2500 nM in experiment [4]; 500 to 2500 nM in experiment [5]; 50 to 500 nM in experiment [6].

For the compound `COc1cc(N2CCC(N3CCN(C)CC3)CC2)c(C)cc1Nc1ncc(F)c(Nc2ccc3nccnc3c2N(C)S(=O)(=O)C2CC2)n1` [Compound I-248], the IC50 in experiment [1] is not above 50 nM; in experiment [2] it was 50 to 500 nM; in experiment [3] it was not above 50 nM; in experiment [4], not above 50 nM; in experiment [5], 50 to 500 nM; in experiment [6], not above 50 nM.

`CCc1cc(Nc2ncc(F)c(Nc3ccc4nccnc4c3N(C)S(=O)(=O)C3CC3)n2)c(OC)cc1N1CCC(N2CCN(C)CC2)CC1` [Compound I-249]: the IC50 was not above 50 nM in experiment [1]; 50 to 500 nM in experiment [2]; not above 50 nM in experiment [3]; not above 50 nM in experiment [4]; 50 to 500 nM in experiment [5]; not above 50 nM in experiment [6].

As for `CCc1cc(Nc2ncc(F)c(Nc3ccc4nccnc4c3N(C)S(=O)(=O)C3CC3)n2)c(OC(F)(F)F)cc1N1CCC(N2CCN(C)CC2)CC1` [Compound I-250], the IC50 in experiment [1] was in the range of 50 to 500 nM; in experiment [2], 500 to 2500 nM; in experiment [3] it was 50 to 500 nM; in experiment [4] it was 50 to 500 nM; in experiment [5], 500 to 2500 nM; in experiment [6], 50 to 500 nM.
